Test: GE Brightness of acephate powder
Type: physicochemical
Conditions: bulk powder, reflected light
Protocol: A sample of technical grade acephate crystals was obtained (Examples 1 and 3) and compared. […] Half of each sample was analyzed for brightness and particle size distribution.
Milling caused a measurable increase in the brightness of the bulk powder sample as measured by reflected light. Such an increase is visually apparent as a noticeably brighter powder when compared side-by-side under the GE Brightness test.

| SMILES | GE Brightness |
| --- | --- |
| COP(=O)(NC(C)=O)SC (centres unmarked) [Ex. 1, acephate, reference compound] | 87.2 |
| COP(=O)(NC(C)=O)SC (centres unmarked) [Ex. 2, acephate] | 88.4 |

From patent US20050163814A1, “Granulated phosphoroamido(di) thioates” (priority 2002, published 2005)
